From US8785412B2, “Method for inducing cancer cell apoptosis or inhibiting the cancer cell migration” (National Tsing Hua University, priority 2011, dated 2014)

What was measured:
[1] = test system: Hep3B; assay: Wound healing assay (cell motility), Hep3B; assay type: cell-based; conditions: Hep3B, 0, 18 and 24 hours
Protocol: (§1) To examine whether the knockdown of hRPIA in cancer cells reduces cell motility, we used specific siRNA to knock down hRPIA expression. To quantify the cancer cell survival rate under the treatment of siRNA against hRPIA which sequence is: […] (SEQ NO. 1) and; […] (SEQ NO. 2) for 0, 18 and 24 hours, we perform wound healing assay to examine the cell motility of hRPIA in Hep3B which were treated with siRNA-hRPIA (cultured in 10% fetal bovine serum with DMEM in 37° C., 5% CO2 for 48 hours) as shown in FIG. 12 respectively. As shown in the figs, the cell motility is lower after adding siRNA.

[2] = test system: caspase-3; assay: Western blot of caspase-3 after hRPIA siRNA knockdown; assay type: cell-based
Description: (§2) To examine whether the knockdown of hRPIA in hepatic cancer cells induces cell apoptosis, we used specific siRNA which sequence is: […] (SEQ NO. 1) and; […] (SEQ NO. 2) to knock down hRPIA expression. Next, we used western blot to examine the protein level of caspase-3 and β-catenin. […] A similar data was obtained in PLC5 and HepG2 (FIG. 14B and FIG. 14C respectively).
(§3) To examine whether the knockdown of hRPIA in colon cancer cells induces cell apoptosis, we used specific siRNA which sequence is: […] (SEQ NO. 1) and; […] ([…]) to knock down hRPIA expression. Next, we used western blot to examine the protein level of caspase-3 and β-catenin.

[3] = test system: HepG2 liver cancer cells; assay: MTT cell viability assay, HepG2; assay type: cell-based; conditions: HepG2, 5-FU 0, 5, 15, 25 μg/mL, vs si-negative control transfected cells
Description: (§4) Further, we used 3-(4,5-dimethylthiazol-2-yl)-2,5-diphenyltetrazolium bromide (MTT) assay to examine whether the knockdown of hRPIA reduces cancer cell viability. […] A similar data was obtained in PLC5 and HepG2 (FIG. 3B and FIG. 3C respectively).
(§5) Further, we used 3-(4,5-dimethylthiazol-2-yl)-2,5-diphenyltetrazolium bromide (MTT) assay to examine whether the over-expression of hRPIA in cancer cells induces cancer cell viability. […] A similar data was obtained in PLC5 and HepG2 (FIG. 7B and FIG. 7C respectively).
(§6) To examine the influence of chemotherapeutic agents on cell growth of liver cancer cell after knocking down of hRPIA, we used specific siRNA to knockdown hRPIA expression and then added 5-fluorouracil (5-FU) by 0, 5, 15, 25 μg/mL into Hep3B, PLC5 and HepG2. Further, we used 3-(4,5-dimethylthiazol-2-yl)-2,5-diphenyltetrazolium bromide (MTT) assay to examine whether the over-expression of hRPIA in cancer cells induces cancer cell viability.

[4] = test system: Hep3B liver cancer cells; assay: MTT cell viability assay, Hep3B; assay type: cell-based
Description: as §4, §5, §6

[5] = test system: PLC5 liver cancer cells; assay: MTT cell viability assay, PLC5; assay type: cell-based; conditions: PLC5, 5-FU 0, 5, 15, 25 μg/mL, vs si-negative control transfected cells
Description: as §4, §5, §6

[6] = test system: SW480; assay: Wound healing assay (cell motility), SW480; assay type: cell-based; conditions: SW480, 0, 14 and 24 hours
Protocol: as §1, with “hRPIA in colon cancer cells” for “hRPIA in cancer cells”, “for 0, 14 and 24” for “for 0, 18 and 24”, “hRPIA in SW480 which were” for “hRPIA in Hep3B which were”, “DMEM in 37 °C, 5% CO2” for “DMEM in 37° C., 5% CO2”, “in FIG. 13 respectively. As” for “in FIG. 12 respectively. As”

[7] = test system: SW480 colon cancer cells; assay: MTT cell viability assay, SW480; assay type: cell-based; conditions: for cell viability by MTT assay after hRPIA knockdown: SW480, 20 nM siRNA
Description: (§7) Further, we used 3-(4,5-dimethylthiazol-2-yl)-2,5-diphenyltetrazolium bromide (MTT) assay to examine whether the knockdown of hRPIA reduces cancer cell viability. […] A similar data was obtained in SW620 (FIG. 5B).
(§8) Further, we used 3-(4,5-dimethylthiazol-2-yl)-2,5-diphenyltetrazolium bromide (MTT) assay to examine whether the over-expression of hRPIA in cancer cells induces cancer cell viability. […] A similar data was obtained in SW620 (FIG. 9B).
as §6, with “colon” for “liver”, “knock down” for “knockdown”, “SW480” for “Hep3B, PLC5”, “SW620.” for “HepG2.”

[8] = test system: SW620 colon cancer cells; assay: MTT cell viability assay, SW620; assay type: cell-based
Description: as §7, §8
as §6, with “colon” for “liver”, “knock down” for “knockdown”, “SW480” for “Hep3B, PLC5”, “SW620.” for “HepG2.”

[9] = test system: hRPIA; assay: Western blot of hRPIA protein level after siRNA knockdown or pcDNA3-hRPIA transfection; assay type: cell-based, human; conditions: siRNA knockdown, 48 hours
[10] = test system: β-catenin; assay: Western blot of β-catenin after hRPIA siRNA knockdown; assay type: cell-based
Description: as §2, §3

Substance: siRNA-hRPIA: siRNA against hRPIA, sequence UUCACUUCACUCCAUUUGUGUACCC (SEQ NO. 1) and GGGUACACAAAUGGAGUGAAGUGAA (SEQ NO. 2) (listed as RNA, chemistry not given here)
- cell motility (wound healing assay) [1]: lower
- caspase-3 protein level (western blot) ([2]; Hep3B, 48 hours): increased activity of caspase-3
- caspase-3 protein level (western blot) ([2]; HepG2): increases caspase-3 expression
- caspase-3 protein level (western blot) ([2]; PLC5): increases caspase-3 expression
- caspase-3 protein level (western blot) ([2]; SW480, 48 hours): increased activity of caspase-3
- cytotoxicity caused by 5-fluorouracil after hRPIA knockdown (MTT) [3]: significantly enhanced the cytotoxicity
- cell viability by MTT assay after hRPIA knockdown ([4]; 20 nM siRNA): significant reduction in cell viability
- cytotoxicity caused by 5-fluorouracil after hRPIA knockdown (MTT) ([4]; 5-FU 0, 5, 15, 25 μg/mL, vs si-negative control transfected cells): significantly enhanced the cytotoxicity
- cytotoxicity caused by 5-fluorouracil after hRPIA knockdown (MTT) [5]: significantly enhanced the cytotoxicity
- cell motility (wound healing assay) [6]: lower
- cell viability by MTT assay after hRPIA knockdown [7]: significant reduction in cell viability
- cell viability by MTT assay after hRPIA knockdown ([7]; listed as siRNAs against hRPIA): significantly reduced cell viability
- cytotoxicity caused by 5-fluorouracil after hRPIA knockdown (MTT) ([7]; SW480, 5-FU 0, 5, 15, 25 μg/mL, vs si-negative control transfected cells): significantly enhanced the cytotoxicity
- cell viability by MTT assay after hRPIA knockdown ([8]; SW620, 20 nM siRNA): significantly reduced cell viability
- cytotoxicity caused by 5-fluorouracil after hRPIA knockdown (MTT) ([8]; SW620, 5-FU 0, 5, 15, 25 μg/mL, vs si-negative control transfected cells): significantly enhanced the cytotoxicity
- hRPIA protein level (western blot) ([9]; Hep3B liver cancer cells, vs si-negative control): lower
- hRPIA protein level (western blot) ([9]; HepG2 liver cancer cells): lower
- hRPIA protein level (western blot) ([9]; PLC5 liver cancer cells, vs si-negative control): lower
- hRPIA protein level (western blot) ([9]; SW480 colon cancer cells): lower
- hRPIA protein level (western blot) ([9]; SW620 colon cancer cells): lower
- β-catenin protein level (western blot) ([10]; Hep3B): slightly reduction
- β-catenin protein level (western blot) ([10]; HepG2): significant reduction
- β-catenin protein level (western blot) ([10]; PLC5): slightly reduction
- β-catenin protein level (western blot) ([10]; SW480): significant reduction
